Results reported in article PMC6352943, “Novel pyrazolo[3,4-d]pyrimidines: design, synthesis, anticancer activity, dual EGFR/ErbB2 receptor tyrosine kinases inhibitory activity, effects on cell cycle profile and caspase-3-mediated apoptosis” (Journal of Enzyme Inhibition and Medicinal Chemistry, 2019).

Tests used:
Assay in all cases: NCI 60 cell line single dose screen (SRB)
Format in all cases: cell-based
K-562 = conditions: Homo sapiens, K562; K-562 (leukemia), single dose 10^−5 M, 48 h; read-out: Growth inhibition percentage
How it was run: (§1)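 Cells were plated and grown 24 h at 37 °C, 5% CO2 before compound addition from DMSO stock, then exposed 48 h. Adherent cells were fixed with cold TCA (final 10%) and suspension cells with 16% TCA. SRB-stained protein was read at 515 nm and percent growth was calculated against time-zero and untreated plates.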

MOLT-4 = conditions: Homo sapiens; MOLT-4 (leukemia), single dose 10^−5 M, 48 h; read-out: Growth inhibition percentage
How it was run: as §1

EKVX = conditions: Homo sapiens; EKVX (non-small cell lung cancer), single dose 10^−5 M, 48 h; read-out: Growth inhibition percentage
How it was run: as §1

RXF 393 = conditions: Homo sapiens; RXF 393 (renal cancer), single dose 10^−5 M, 48 h; read-out: Growth inhibition percentage
How it was run: as §1

OVCAR-4 = conditions: Homo sapiens; OVCAR-4 (ovarian cancer), single dose 10^−5 M, 48 h; read-out: Growth inhibition percentage
How it was run: as §1

SF-593 = conditions: Homo sapiens, SF-593 (CNS cancer), single dose 10^−5 M, 48 h, read-out: Growth inhibition percentage
How it was run: as §1

TK-10 = conditions: Homo sapiens; TK-10 (renal cancer), single dose 10^−5 M, 48 h; read-out: Growth inhibition percentage
How it was run: as §1

U251 = conditions: Homo sapiens, U-251; U251 (CNS cancer), single dose 10^−5 M, 48 h; read-out: Growth inhibition percentage
How it was run: as §1

HOP-92 = conditions: Homo sapiens; HOP-92 (non-small cell lung cancer), single dose 10^−5 M, 48 h; read-out: Growth inhibition percentage
How it was run: as §1

HS 578T = conditions: Homo sapiens; HS 578T (breast cancer), single dose 10^−5 M, 48 h; read-out: Growth inhibition percentage
How it was run: as §1

SK-MEL-28 = conditions: Homo sapiens; SK-MEL-28 (melanoma), single dose 10^−5 M, 48 h; read-out: Growth inhibition percentage
How it was run: as §1

SR = conditions: Homo sapiens; SR (leukemia), single dose 10^−5 M, 48 h; read-out: Growth inhibition percentage
How it was run: as §1

SN12C = conditions: Homo sapiens; SN12C (renal cancer), single dose 10^−5 M, 48 h; read-out: Growth inhibition percentage
How it was run: as §1

M14 = conditions: Homo sapiens; M14 (melanoma), single dose 10^−5 M, 48 h; read-out: Growth inhibition percentage
How it was run: as §1

SF-268 = conditions: Homo sapiens; SF-268 (CNS cancer), single dose 10^−5 M, 48 h; read-out: Growth inhibition percentage
How it was run: as §1

NCI-H226 = conditions: Homo sapiens; NCI-H226 (non-small cell lung cancer), single dose 10^−5 M, 48 h; read-out: Growth inhibition percentage
How it was run: as §1

BT-549 = conditions: Homo sapiens; BT-549 (breast cancer), single dose 10^−5 M, 48 h; read-out: Growth inhibition percentage
How it was run: as §1

SNB-75 = conditions: Homo sapiens; SNB-75 (CNS cancer), single dose 10^−5 M, 48 h; read-out: Growth inhibition percentage
How it was run: as §1

NCI-H522 = conditions: Homo sapiens; NCI-H522 (non-small cell lung cancer), single dose 10^−5 M, 48 h; read-out: Growth inhibition percentage
How it was run: as §1

NCI-H23 = conditions: Homo sapiens; NCI-H23 (non-small cell lung cancer), single dose 10^−5 M, 48 h; read-out: Growth inhibition percentage
How it was run: as §1

KM12 = conditions: Homo sapiens; KM12 (colon cancer), single dose 10^−5 M, 48 h; read-out: Growth inhibition percentage
How it was run: as §1

Compound	inhibition at 10 µM (K-562)	inhibition at 10 µM (MOLT-4)	inhibition at 10 µM (EKVX)	inhibition at 10 µM (RXF 393)	inhibition at 10 µM (OVCAR-4)	inhibition at 10 µM (SF-593)	inhibition at 10 µM (TK-10)	inhibition at 10 µM (U251)	inhibition at 10 µM (HOP-92)	inhibition at 10 µM (HS 578T)	inhibition at 10 µM (SK-MEL-28)	inhibition at 10 µM (SR)	inhibition at 10 µM (SN12C)	inhibition at 10 µM (M14)	inhibition at 10 µM (SF-268)	inhibition at 10 µM (NCI-H226)	inhibition at 10 µM (BT-549)	inhibition at 10 µM (SNB-75)	inhibition at 10 µM (NCI-H522)	inhibition at 10 µM (NCI-H23)	other results
Cc1nn(-c2ccc(F)cc2)c2ncnc(N3CCN(c4ccc(Cl)cc4)CC3)c12 [Compound 8c, 4–(4-(4-Chlorophenyl)piperazin-1-yl)-1–(4-fluorophenyl)-3-methyl-1H-pyrazolo[3,4-d]pyrimidine]	11.4%	7.19%	20.6%	-16.5%	-1.9%	3.89%	-30.9%	-0.06%	15.9%	3.74%	-3.74%	11%	13.3%	-0.94%	4.51%	7.59%	-4.23%	0.02%	8.23%	20.7%	inhibition at 10 µM (KM12): 2.24%
COc1ccc(N2CCN(c3ncnc4c3c(C)nn4-c3ccc(F)cc3)CC2)cc1 [Compound 8d, 1–(4-Fluorophenyl)-4–(4-(4-methoxyphenyl)piperazin-1-yl)-3-methyl-1H-pyrazolo[3,4-d]pyrimidine]	-4%	3.49%	7.21%	-9.45%	-1.77%	8.43%	-48%	-2.5%	4.73%	5.99%	-8.74%	8.97%	6.31%	3.95%	-2.9%	5.22%	2.13%	5.93%	3.59%	9.95%	inhibition at 10 µM (KM12): 0.4%
Cc1nn(-c2ccc(F)cc2)c2ncnc(NN)c12 [Compound 9, 1–(4-Fluorophenyl)-4-hydrazinyl-3-methyl-1H-pyrazolo[3,4-d]-pyrimidine]	-3.06%	22.7%	17%	5.47%	17.8%	-0.7%	-51.2%	9.85%	13.4%	-4.22%	2.1%	20.2%	8.3%	-8%	25.6%	15.5%	-10.8%	-0.56%	10.3%	19.1%	inhibition at 10 µM (KM12): 3.79%
COc1cc(C=NNc2ncnc3c2c(C)nn3-c2ccc(F)cc2)ccc1O [Compound 10b, 1–(4-Fluorophenyl)-4–(2-(4-hydroxy-3-methoxybenzylidene)-hydrazinyl)-3-methyl-1H-pyrazolo[3,4-d]pyrimidine]	24.2%	38.3%	12.4%	4.9%	9.65%	3.85%	11.3%	5.64%	39.5%	0.89%	-7.04%	22.9%	14.9%	-2.1%	29%	-2.3%	9.63%	17.5%	27.1%	9.39%	inhibition at 10 µM (KM12): 28.1%
COc1cc(C=NNc2ncnc3c2c(C)nn3-c2ccc(F)cc2)cc(OC)c1OC [Compound 10c, 1–(4-Fluorophenyl)-3-methyl-4–(2-(3,4,5-trimethoxybenzylidene)-hydrazinyl)-1H-pyrazolo[3,4-d]pyrimidine]	-3.02%	7.03%	10%	3.39%	-8.66%	13.2%	-36.3%	0.92%	40.4%	13.9%	1.3%	13.7%	4.99%	2.73%	6.35%	5.82%	-1.06%	19.5%	7.26%	14.2%	inhibition at 10 µM (KM12): 5.82%
